The supplement of paper PMC10307832

Legend:
Test in all cases: relative viability (nuclei count vs DMSO), 5 days (fraction); higher = more cells survive
Seliciclib + Lapatinib = compound: CC[C@H](CO)Nc1nc(NCc2ccccc2)c2ncn(C(C)C)c2n1 [Seliciclib] + CS(=O)(=O)CCNCc1ccc(-c2ccc3ncnc(Nc4ccc(OCc5cccc(F)c5)c(Cl)c4)c3c2)o1 [Lapatinib] (partner 2 µM)
Summary of the method: (§1)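 Relative viability divides the nuclei count in treated wells by that in vehicle wells. Lung cancer cell lines were seeded in 1536-well plates, dosed by pin tool the next day, and fixed and stained after 5 days in one step with final 0.05% Triton X-100, 1% formaldehyde and 1 ug/ml Hoechst. Dosing was a single drug or a fixed anchor-drug dose plus five library-drug doses (not always all listed) in √10 steps, and values are medians of duplicate plates imaged at 4×.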

Seliciclib + OSI-027 = compound: CC[C@H](CO)Nc1nc(NCc2ccccc2)c2ncn(C(C)C)c2n1 [Seliciclib] + COc1cccc2cc(-c3nc([C@H]4CC[C@H](C(=O)O)CC4)n4ncnc(N)c34)[nH]c12 [OSI-027] (partner 0.5 µM)
Summary of the method: as §1

Seliciclib + Linsitinib = compound: CC[C@H](CO)Nc1nc(NCc2ccccc2)c2ncn(C(C)C)c2n1 [Seliciclib] + C[C@]1(O)C[C@@H](c2nc(-c3ccc4ccc(-c5ccccc5)nc4c3)c3c(N)nccn32)C1 [Linsitinib] (partner 1 µM)
Summary of the method: as §1

Seliciclib + Luminespib = compound: CC[C@H](CO)Nc1nc(NCc2ccccc2)c2ncn(C(C)C)c2n1 [Seliciclib] + CCNC(=O)c1noc(-c2cc(C(C)C)c(O)cc2O)c1-c1ccc(CN2CCOCC2)cc1 [Luminespib] (partner 0.01 µM)
Summary of the method: as §1

Cell Line | relative viability (Seliciclib + Lapatinib; first compound 0.08 µM) | relative viability (Seliciclib + Lapatinib; first compound 0.253 µM) | relative viability (Seliciclib + Lapatinib; first compound 0.8 µM) | relative viability (Seliciclib + Lapatinib; first compound 2.53 µM) | relative viability (Seliciclib + Lapatinib; first compound 8 µM) | relative viability (Seliciclib + OSI-027; first compound 0.08 µM) | relative viability (Seliciclib + OSI-027; first compound 0.253 µM) | relative viability (Seliciclib + OSI-027; first compound 0.8 µM) | relative viability (Seliciclib + OSI-027; first compound 2.53 µM) | relative viability (Seliciclib + OSI-027; first compound 8 µM) | relative viability (Seliciclib + Linsitinib; first compound 0.08 µM) | relative viability (Seliciclib + Linsitinib; first compound 0.253 µM) | relative viability (Seliciclib + Linsitinib; first compound 0.8 µM) | relative viability (Seliciclib + Linsitinib; first compound 2.53 µM) | relative viability (Seliciclib + Linsitinib; first compound 8 µM) | relative viability (Seliciclib + Luminespib; first compound 0.08 µM) | relative viability (Seliciclib + Luminespib; first compound 0.253 µM) | relative viability (Seliciclib + Luminespib; first compound 0.8 µM) | relative viability (Seliciclib + Luminespib; first compound 2.53 µM) | relative viability (Seliciclib + Luminespib; first compound 8 µM)
H3255 | 0.265 | 0.273 | 0.256 | 0.174 | 0.242 | 0.596 | 0.642 | 0.626 | 0.532 | 0.579 | 0.872 | 0.926 | 1.02 | 1.16 | 0.891 | 0.868 | 1.05 | 0.94 | 0.833 | 0.917
EPLC-272H | 0.814 | 0.861 | 0.805 | 0.913 | 0.847 | 0.328 | 0.271 | 0.265 | 0.225 | 0.265 | 1.32 | 1.09 | 1.04 | 1.35 | 0.927 | 0.297 | 0.204 | 0.214 | 0.177 | 0.231
PC-3 [JPC-3] | 0.455 | 0.52 | 0.418 | 0.421 | 0.445 | 0.727 | 0.761 | 0.716 | 0.65 | 0.672 | 0.954 | 0.994 | 1 | 0.915 | 0.893 | 0.81 | 0.584 | 0.63 | 0.605 | 0.66
EKVX | 0.197 | 0.473 | 0.18 | 0.166 | 0.216 | – | 0.781 | 0.661 | 0.565 | 0.537 | 0.925 | 1.1 | 0.94 | 1.14 | 0.711 | – | 1.03 | 0.794 | 0.821 | 0.642
ChaGo-K-1 | – | – | – | – | – | 0.663 | 0.367 | 0.587 | 0.356 | 0.451 | – | – | – | – | – | 0.587 | 0.362 | 0.711 | 0.536 | 0.603
NCI-H23 | 0.97 | 1.08 | 1.19 | 0.657 | 0.851 | 0.645 | 0.408 | 0.652 | 0.267 | 0.505 | 0.616 | 0.392 | 0.505 | 0.599 | 0.419 | 0.202 | 0.206 | 0.209 | 0.211 | 0.242
EMC-BAC-2 | 0.891 | 0.847 | 0.953 | 0.666 | 0.781 | 0.401 | 0.317 | 0.43 | 0.253 | 0.347 | 0.835 | 0.805 | 0.775 | 0.894 | 0.754 | 1.15 | 1.02 | 1.15 | 1.16 | 1.11
LOU-NH91 | 0.743 | 0.682 | 0.729 | 0.6 | 0.681 | 0.741 | 0.693 | 0.674 | 0.592 | 0.644 | 0.878 | 0.889 | 0.881 | 1.01 | 0.693 | 0.318 | 0.332 | 0.293 | 0.305 | 0.276
LU99A | 1.01 | 0.923 | 1.02 | 0.666 | 0.537 | 0.286 | 0.265 | 0.323 | 0.221 | 0.323 | 0.565 | 0.466 | 0.474 | 0.497 | 0.494 | 0.267 | 0.196 | 0.209 | 0.191 | 0.268
NCI-H1395 | 1.03 | 0.811 | 1.09 | 0.871 | 0.861 | 0.728 | 0.576 | 0.606 | 0.612 | 0.587 | 0.961 | 0.739 | 1 | 1.06 | 1.28 | 0.709 | 0.722 | 0.726 | 0.588 | 0.669
NCI-H460 | 0.895 | 1.04 | 0.922 | 1.34 | 0.826 | 0.706 | 0.601 | 0.672 | 0.563 | 0.561 | 0.797 | 0.795 | 0.75 | 1 | 0.637 | 0.0402 | 0.0324 | 0.0419 | 0.0357 | 0.0269
201T | 1.08 | 1.07 | 1 | 0.952 | 0.843 | 0.815 | 0.708 | 0.857 | 0.467 | 0.688 | 1.04 | 1.07 | 0.994 | 1.05 | 0.982 | 1.02 | 1.1 | 0.976 | 0.999 | 1.03
NCI-H1648 | – | – | – | – | – | 0.273 | 0.313 | 0.281 | 0.251 | 0.259 | – | – | – | – | – | – | – | – | – | –
NCI-H2405 | 1.11 | 0.851 | 1.05 | 0.919 | 0.902 | 0.616 | 0.669 | 0.689 | 0.291 | 0.555 | 0.978 | 0.962 | 0.863 | 0.941 | 0.793 | 0.676 | 0.661 | 0.799 | 0.385 | 0.548
NCI-H1703 | 1.07 | 0.861 | 1.03 | 1.14 | 0.846 | – | – | – | – | – | 0.675 | 0.869 | 0.767 | 0.989 | 0.712 | – | – | – | – | –
NCI-H1755 | 1.02 | 1.02 | 1.02 | 0.963 | 1.03 | 0.633 | 0.714 | 0.738 | 0.515 | 0.691 | 0.982 | 1.02 | 0.978 | 1.02 | 0.993 | 0.573 | 0.565 | 0.444 | 0.406 | 0.407
NCI-H2087 | 1.13 | 1.14 | 1.02 | 0.749 | 0.965 | 0.617 | 0.533 | 0.497 | 0.273 | 0.432 | 0.896 | 0.991 | 1 | 0.867 | 0.862 | 0.192 | 0.188 | 0.158 | 0.193 | 0.231
NCI-H2228 | 1.07 | 1.35 | 1.02 | 1.2 | 0.847 | 0.594 | 0.437 | 0.617 | 0.473 | 0.404 | 0.848 | 0.491 | 0.612 | 0.564 | 0.57 | 0.157 | 0.155 | 0.14 | 0.185 | 0.149
